In US11801238B2, “Anti-viral activity of VPS34 inhibitors” (priority 2020, dated 2023):

Key:
[1] = in vitro; details: human
[2] = Compound cytotoxicity (CC50) counter screen, Cell Titer-Glo; type: cell-based; details: African green monkey, Example 5, Vero E6 cells, read-out: CC50 (general cytotoxic effects)
Description: Compound cytotoxicity (CC50) is assessed in a BSL-2 counter screen as follows: Host cells in media are added in 25 μl aliquots (4000 cells/well) to each well of assay ready plates prepared with test compounds as above. Cells only (100% viability) and cells treated with hyamine at 100 μM final concentration (0% viability) serve as the high and low signal controls, respectively, for cytotoxic effect in the assay. DMSO is maintained at a constant concentration for all wells (0.3%) as dictated by the dilution factor of stock test compound concentrations. After incubating plates at 37° C./5% CO2 and 90% humidity for 72 hours, 30 μl Cell Titer-Glo (Promega) is added to each well. Luminescence is read using a BMG PHERAstar plate reader following incubation at room temperature for 10 minutes to measure cell viability.

[3] = test system: SARS CoV-2; assay: SARS CoV-2 CPE assay for antiviral activity in Vero E6 host cells; type: cell-based; details: read-out: IC50 for inhibition of SARS CoV-2 mediated cell killing
[4] = test system: SARS CoV-2; assay: microbe, parasite or virus in culture; type: cell-based; details: Severe acute respiratory syndrome coronavirus 2, A549, 48 h; read-out: IC50 for inhibition of SARS CoV-2 mediated cell killing
[5] = Vero C1008, CPE assay, Vero E6 cells, USA_WA1/2020 SARS CoV-2, 72 hours, 10-point dose response (high concentration 15 μM)

Row | Structure (SMILES) | CC50 [1] [nM] | CC50 at 72 h [2] [nM] | IC50 [3, 5] [nM] | IC50 [4] [nM] | IC50 ([3]; Vero C1008, 72 h) [nM]
1 | COC(=O)Nc1cc(-c2cc(-c3ccccc3C(F)(F)F)[nH]c(=O)c2)ccn1 [Compound 1] | 17000 | > 30000 | 120 | 90 | –
2 | CC(=O)Nc1cc(-c2cc(-c3cccnc3C(F)(F)F)[nH]c(=O)c2)ccn1 [Compound 2] | > 30000 | > 30000 | 2340 | 470 | –
3 | COC(=O)Nc1cc(-c2cc(-c3cccnc3C(F)(F)F)[nH]c(=O)c2)ccn1 [Compound 3] | > 30000 | > 30000 | 340 | 190 | –
4 | COC(=O)Nc1cc(-c2cc(N3CCOCC3C(F)(F)F)[nH]c(=O)c2)ccn1 (stereo not shown) [Compound 4] | 2400 | 8260 | – | 67 | 209
